This note sets out measurements from US20240226241A1, “FORMULATIONS FOR INTRAOCULAR DELIVERY OF PEPTIDES DERIVED FROM TYPE IV COLLAGEN” (AsclepiX Therapeutics, Inc., priority 2022, published 2024).

No end group written: not given here.

For data set [1] the following is noted: rabbit, in vivo.
Description: (§1) This example evaluates the pharmacokinetics (PK)/tolerability of the AXT107 suspension (5% sucrose, 0.9% NaCl) at 4 different dose levels administered by suprachoroidal (Sch) injection in female Dutch Belted rabbits. In Phase 1 of these experiments, animals received a 100 μL SCh injection in both eyes on Day 0. In these experiments, Group 1 received 469 μg of AXT107 peptide, Group 2 received 246 μg of AXT107 peptide, and Group 3 received vehicle (i.e., 5% sucrose in saline).
(§2) Blood was collected from Group 3 pre-dose, and in terminal animals on Day 90, and was processed for plasma. All eyes in Groups 1 and 2 and two Group 3 eyes were collected and dissected. Blood and ocular tissues underwent PK analysis.
(§3) In the next studies, animals received a 100 μL SCh injection (of AXT107 suspension, 5% sucrose and 0.9% NaCl) in both eyes on Day 0. Group 1 animals received 340 μg of AXT107 peptide, Group 2 animals received 219 μg AXT107 peptide, Group 3 animals received 142 μg of AXT107 peptide, and Group 4 animals received 115 μg AXT107 peptide.
(§4) On Days 1, 15, 30, 60, and 90, n=2 animals/group were euthanized and plasma and ocular tissues were collected for PK.
(§5) Plasma and ocular tissues collected during the study were analyzed for AXT107 peptide PK parameters by non-GLP liquid chromatography with tandem-mass spectrometry (LC/MS/MS).
Data set [2] can be described thus: Tolerability after suprachoroidal injection (ocular examination, tonometry, OCT, H&E histopathology). To be noted: for tolerability: 100 μL SCh injection in both eyes on Day 0, to Day 90.
Description: This example evaluates the pharmacokinetics (PK)/tolerability of the AXT107 suspension (5% sucrose, 0.9% NaCl) at 4 different dose levels administered by suprachoroidal (Sch) injection in female Dutch Belted rabbits. In Phase 1 of these experiments, animals received a 100 μL SCh injection in both eyes on Day 0.
Ocular examinations were performed at baseline, and on Days 1, 3, 7, 15, 30, 60, and 90. […] Tonometry was performed at baseline, and on Days 1, 3, 7, 15, 30, 60, and 90. […] Optical coherence tomography (OCT) was performed at baseline, post-dose to confirm SCh dosing, and on Day 15.
All eyes in Groups 1 and 2 and two Group 3 eyes were collected and dissected. […] From Group 3, two eyes were collected and processed for hematoxylin & eosin (H&E) histopathology.
In the next studies, animals received a 100 μL SCh injection (of AXT107 suspension, 5% sucrose and 0.9% NaCl) in both eyes on Day 0. […] Ocular examinations were performed at baseline and on Days 1, 9, 30, 60, and 90.
Tonometry was performed at baseline and on Days 1, 9, 30, 60, and 90.
OCT was performed at baseline, post-dose to confirm SCh dosing, and in terminal animals on Days 15 and 30.
On Day 90, an additional Group 1 animal was euthanized and OU were processed for H&E histopathology.
Data set [3] in a line: Pharmacokinetics after suprachoroidal injection, LC/MS/MS of plasma and ocular tissues. The note with it: SCh injection.
Description: as §1, §2, §3, §4, §5

As for LRRFSTAPFAFIDINDVINF [AXT107 peptide], the “drug levels in choroid/RPE” value in data set [1] is reported as “present”. The “H&E histopathology of eyes” value in data set [2] (Group 1 (340 μg), Day 90, both eyes, considered incidental (needle damage), unrelated to AXT107) is listed as “mild mononuclear cell infiltrate in the limbal conjunctiva”. For the same sequence, the tolerability result is “well tolerated” in data set [2] (Phase 1: 469 μg and 246 μg); “well tolerated” in data set [2] (all doses). For the same sequence, the “drug levels in retina” value in data set [3] is recorded as “present”. In addition, the “drug levels in aqueous humor” value in data set [3] (all timepoints) is “absent”. Also, in data set [3] (all timepoints), the “drug levels in plasma” value was “absent”.
